Source: PubChem BioAssay (NCI)
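Following 48 hours of exposure in 96-well plates, responses at five concentrations were used to interpolate endpoints linearly. The concentration for 50% growth inhibition is given as GI50. TGI: concentration producing complete growth inhibition.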

Columns and labels:
Test in all cases: inhibition of tumour cell growth, NCI panel, 48 h
[1] = tested on: ACHN renal
[2] = tested on: EKVX NSCLC
[3] = tested on: HCT-15 colon
[4] = tested on: MOLT-4 leukemia
[5] = tested on: NCI-H460 lung
[6] = tested on: RPMI-8226 leukemia
[7] = tested on: SF-268 CNS
[8] = tested on: TK-10 renal
[9] = tested on: HOP-92 NSCLC

In the case of `CCOC(=O)c1ccc(C(=O)/C(C(C)=O)=C2\CCCN2C)n1C`, the TGI [1] is reported as over 100 µM, the TGI [2] is reported as over 100 µM and the TGI [3] is reported as over 100 µM. The TGI [4] was over 100 µM, the TGI [5] was over 100 µM and the TGI [6] was over 100 µM. It also gave a TGI [7] of over 100 µM and a TGI [8] of over 100 µM.

`O=C1[C@@H]2[C@@H](c3ccccc3)[C@]2(Cl)C(=O)[C@H]2[C@H](c3ccccc3)[C@@]12Cl` showed a TGI [1] of over 100 µM, a TGI [2] of over 100 µM and a TGI [3] of over 100 µM. For the same molecule, the TGI [9] was over 100 µM, the TGI [4] was over 100 µM and the TGI [5] was over 100 µM. For the same molecule, the TGI [7] was over 100 µM and the TGI [8] was over 100 µM.

For `CC(C)[Si](OC1=CCC[C@H]2NC(=O)[C@@H](Cc3ccccc3)[C@@]12C)(C(C)C)C(C)C`, the TGI [1] was 5.25 µM, the TGI [2] was 15 µM and the TGI [3] was 15.6 µM. It also gave a TGI [9] of 6.67 µM, a TGI [4] of 14.7 µM and a TGI [5] of 12.4 µM. The TGI [7] was 29.1 µM and the TGI [8] was 21.7 µM.

`N#CCCC1(CCC#N)CCCCCCCCC(CCC#N)(CCC#N)C(=O)C1=O` was tested, and the TGI [1] was over 100 µM, the TGI [2] was over 100 µM and the TGI [3] was over 100 µM. For the same molecule, the TGI [9] was over 100 µM, the TGI [5] was over 100 µM and the TGI [7] was over 100 µM. For the same molecule, the TGI [8] was over 100 µM.

Molecule `COc1ccc(OC)c(CC2CCc3nc(N)nc(N)c3C2)c1` (centres undefined) has a TGI [1] of over 65.8 µM, a TGI [2] of over 100 µM and a TGI [3] of over 72.8 µM. The TGI [9] was 77.4 µM, the TGI [4] was over 100 µM and the TGI [5] was over 46 µM. It also gave a TGI [6] of over 100 µM and a TGI [8] of over 94 µM.

With `CC(=O)O[C@@H]1C2=C(C)C=C(O2)[C@H]2O[C@]2(C)C[C@H]2C=C(C(=O)O2)[C@H](OC(C)=O)CC1[C@@]1(C)CO1` (some centres undefined) the TGI [1] was 61.6 µM, the TGI [2] was 85 µM and the TGI [3] was 63.6 µM. It also gave a TGI [4] of 25.2 µM, a TGI [5] of over 100 µM and a TGI [6] of 33.9 µM. It also gave a TGI [7] of over 100 µM and a TGI [8] of over 100 µM.

`COc1ccc2oc(OC)c(CC=C(C)C)c(=O)c2c1C` showed a TGI [1] of over 100 µM, a TGI [2] of over 100 µM and a TGI [3] of over 100 µM. It also gave a TGI [4] of over 100 µM, a TGI [5] of over 100 µM and a TGI [6] of over 100 µM. It also gave a TGI [7] of over 100 µM and a TGI [8] of over 100 µM.

`O=C/C=C/c1ccco1` showed a TGI [1] of over 100 µM, a TGI [2] of over 100 µM and a TGI [3] of over 100 µM. The TGI [9] was over 100 µM, the TGI [4] was over 100 µM and the TGI [6] was over 100 µM. It also gave a TGI [7] of over 100 µM and a TGI [8] of over 100 µM.

With `COc1cc(/C=C/C(=O)c2c(C)nc3ccccc3c2C)ccc1OCCCOc1cc2c(cc1OC)C(=O)N1CCC[C@H]1C=N2` the GI50 [1] was 0.0313 µM, the TGI [1] was 0.106 µM and the GI50 [2] was 0.0555 µM. For the same molecule, the TGI [2] was 0.453 µM, the GI50 [3] was 0.278 µM and the TGI [3] was 1.01 µM. It also gave a GI50 [9] of 0.0367 µM, a TGI [9] of 0.275 µM and a GI50 [4] of 0.0323 µM. The GI50 [5] was 0.0292 µM, the GI50 [6] was 0.014 µM and the TGI [6] was 0.0477 µM. The GI50 [8] was 0.0257 µM and the TGI [8] was 0.0682 µM.

Work on `CCOC(=O)C(Cl)(NC(=O)c1c(F)c(F)c(F)c(F)c1F)C(F)(F)F` (centres undefined) yielded a TGI [1] of over 100 µM, a TGI [2] of over 100 µM and a TGI [3] of over 100 µM. For the same molecule, the TGI [9] was 75.3 µM, the TGI [4] was over 100 µM and the TGI [6] was over 100 µM. For the same molecule, the TGI [7] was over 100 µM and the TGI [8] was over 100 µM.

Work on `COC(=O)C1=C(O)C(C(=O)OC)[C@]2(O)[C@H](C(=O)OC)[C@H]1C[C@@H](c1c(Cl)cccc1Cl)[C@H]2C(=O)OC` (some centres undefined) yielded a TGI [1] of 4.86 µM, a TGI [2] of 18.4 µM and a TGI [3] of 4.49 µM. For the same molecule, the TGI [9] was 14 µM, the TGI [4] was 5.31 µM and the TGI [5] was 6.55 µM. For the same molecule, the TGI [6] was 3.38 µM and the TGI [7] was 12.9 µM.

`CCCCCCCCCCCCCC[n+]1ccc2c(C)c3c(c(C)c2c1)c1cc(O)ccc1n3CC` was tested, and the GI50 [1] was 1.22 µM, the TGI [1] was 3.9 µM and the GI50 [2] was 0.554 µM. It also gave a TGI [2] of 2.56 µM, a GI50 [3] of 1.21 µM and a TGI [3] of 3.5 µM. For the same molecule, the GI50 [9] was 0.301 µM, the TGI [9] was 1.32 µM and the GI50 [5] was 0.347 µM. For the same molecule, the TGI [5] was 1.59 µM, the GI50 [6] was 0.31 µM and the TGI [6] was 1.99 µM. For the same molecule, the GI50 [8] was 0.337 µM and the TGI [8] was 1.54 µM.

For `CCOC(=O)C1OC(C2(C)OC3(OC4(C=CC3O)OC(C(C)C(=O)C(C)C(O)C(C)CC(C)c3c(Cl)cc(C)c(O)c3C(=O)O)C(C)CC4C)C(C)C2OC)CC1O` (centres undefined), the TGI [1] was 6.78 µM, the TGI [2] was 5.02 µM and the TGI [3] was over 20.2 µM. The TGI [9] was 5.77 µM, the TGI [5] was 0.714 µM and the TGI [6] was over 14.7 µM. The TGI [7] was 6.85 µM and the TGI [8] was 7.81 µM.

For `c1ccc2c(c1)ncn2C1CCCCO1` (centres undefined), the TGI [1] was over 100 µM, the TGI [2] was over 100 µM and the TGI [3] was over 100 µM. The TGI [9] was over 100 µM, the TGI [4] was over 100 µM and the TGI [6] was over 100 µM. It also gave a TGI [7] of over 100 µM and a TGI [8] of over 100 µM.

`CC1(CCCO)CCCCCCCCCC(C)(CCCO)C1=O` (centres undefined) showed a TGI [1] of over 100 µM, a TGI [2] of over 100 µM and a TGI [3] of over 100 µM. The TGI [9] was over 100 µM, the TGI [4] was over 100 µM and the TGI [5] was over 100 µM. The TGI [6] was over 100 µM and the TGI [7] was over 100 µM.

`CCOc1ccc(/C=N/[N+](C)(C)C)cc1OCC` showed a TGI [1] of over 10 µM, a TGI [3] of over 10 µM and a TGI [9] of over 10 µM. For the same molecule, the TGI [4] was over 10 µM, the TGI [6] was over 10 µM and the TGI [7] was over 10 µM. For the same molecule, the TGI [8] was over 10 µM.

Work on `NC1CC2NC3CCCCC3NC2CC1N` (centres undefined) yielded a TGI [1] of over 100 µM, a TGI [2] of over 100 µM and a TGI [3] of over 100 µM. For the same molecule, the TGI [4] was 92.9 µM, the TGI [5] was over 100 µM and the TGI [6] was over 100 µM. For the same molecule, the TGI [7] was over 100 µM and the TGI [8] was over 100 µM.

With `C/C(=C/C(=O)Nn1c(Cc2ccccc2)n[nH]c1=O)C(=O)O` the TGI [1] was over 100 µM, the TGI [2] was over 100 µM and the TGI [3] was over 100 µM. The TGI [4] was over 100 µM, the TGI [5] was over 100 µM and the TGI [6] was over 100 µM. It also gave a TGI [7] of over 100 µM and a TGI [8] of over 100 µM.

`N=c1c2c(-c3ccccc3)c[nH]c2ncn1N` was tested, and the TGI [1] was over 100 µM, the TGI [2] was over 100 µM and the TGI [3] was over 100 µM. The TGI [9] was over 100 µM, the TGI [4] was over 100 µM and the TGI [6] was over 100 µM. For the same molecule, the TGI [8] was over 100 µM.

With `COc1ccc(C(SCCO)(c2ccccc2)c2ccccc2)cc1` the TGI [1] was 27.3 µM, the TGI [2] was 28.3 µM and the TGI [3] was 28.7 µM. It also gave a TGI [9] of 25.4 µM, a TGI [4] of over 100 µM and a TGI [5] of 27.5 µM. For the same molecule, the TGI [7] was 31.7 µM and the TGI [8] was 35 µM.

Molecule `CN(C)c1ccc(C(Cc2ccc3ccccc3n2)Cc2ccc3ccccc3n2)cc1` has a GI50 [9] of 2.19 µM, a TGI [9] of 6.91 µM and a GI50 [5] of 3.14 µM. For the same molecule, the TGI [5] was over 100 µM, the GI50 [8] was 4.93 µM and the TGI [8] was over 100 µM.

Work on `Fc1ccc2nc3n(c2c1)C(c1c(Cl)cccc1Cl)SC3` (centres undefined) yielded a TGI [1] of over 100 µM, a TGI [3] of over 100 µM and a TGI [9] of over 100 µM. The TGI [4] was over 100 µM, the TGI [5] was over 100 µM and the TGI [6] was over 100 µM. For the same molecule, the TGI [7] was over 100 µM and the TGI [8] was over 100 µM.

In the case of `CN(C)c1nncc2[nH]cnc12`, the TGI [1] is reported as over 100 µM, the TGI [2] is reported as over 100 µM and the TGI [3] is reported as over 100 µM. It also gave a TGI [4] of over 100 µM, a TGI [5] of over 100 µM and a TGI [6] of over 100 µM. It also gave a TGI [7] of over 100 µM and a TGI [8] of over 100 µM.

`COC1(OC)CC(CO)(CNc2cc(Cl)nc(N)n2)C1` gave a TGI [1] of over 100 µM, a TGI [2] of over 100 µM and a TGI [3] of over 100 µM. It also gave a TGI [4] of over 100 µM, a TGI [5] of over 100 µM and a TGI [6] of over 100 µM. For the same molecule, the TGI [7] was over 100 µM and the TGI [8] was over 100 µM.
